Experimental findings from PubChem BioAssay (NCI) are described below.

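Briefly, cells in 96-well plates were exposed to five compound concentrations for 48 h, and endpoints were estimated by linear interpolation. GI50: concentration for 50% inhibition of growth. TGI: total growth inhibition.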 Where a SMILES comes first, the peptide text is derived from it. [ ]: non-standard residue; d: D form. Where only a bound is given, the exact number is not on record here.

Among the test systems are SF-295 CNS; T-47D breast; NCI-H23 lung; UO-31 renal; MDA-MB-435; EKVX NSCLC; NCI-H522 lung; OVCAR-8 ovarian; HT29 colon; SR leukemia.
Holding throughout (assay): NCI-60 cell line screen, 48 h

As for `COP(=O)(CP(=O)(OC)OCCC(C)CCC=C(C)C)OC` (stereo not given), the TGI with SF-295 CNS, in the assay with T-47D breast, with NCI-H23 lung, in the assay on UO-31 renal, with MDA-MB-435 and in the assay on EKVX NSCLC was above 100 µM in each case. Moreover, the TGI with NCI-H522 lung and with OVCAR-8 ovarian was above 100 µM in each case.
Regarding `O=c1oc2ccccc2c(O)c1C(c1ccc(OCc2ccccc2)cc1)c1c(O)c2ccccc2oc1=O`, the TGI was above 100 µM in the assay on SF-295 CNS; above 100 µM in the assay with T-47D breast; above 100 µM in the assay on NCI-H23 lung; 52.5 µM in the assay with UO-31 renal; above 100 µM with MDA-MB-435; above 100 µM in the assay on EKVX NSCLC. In addition, the TGI in the assay on HT29 colon, with NCI-H522 lung and in the assay with OVCAR-8 ovarian was above 100 µM throughout.
As for `CC(=O)/C=C(/C)[O-].CC(=O)/C=C(/C)[O-].CC(=O)[CH-]C(C)=O.CC(=O)[CH-]C(C)=O.[Zr+4]`, the GI50 in the assay on NCI-H23 lung, in the assay on SR leukemia, with UO-31 renal, with EKVX NSCLC, in the assay with HT29 colon and in the assay on NCI-H522 lung was above 100 µM each time. For the same compound, the TGI in the assay on NCI-H23 lung, with SR leukemia, in the assay on UO-31 renal, with EKVX NSCLC, in the assay on HT29 colon and in the assay on NCI-H522 lung was above 100 µM in each case.
`CC(C)C[C@H](NC(=O)[C@H](CC(C)C)NC(=O)[C@@H](Cc1c[nH]c2ccccc12)NC(=O)[C@H](Cc1ccccc1)NC(=O)[C@@H](Cc1c[nH]c2ccccc12)NC(=O)[C@H](CCC(N)=O)NC(=O)[C@@H](CCC(N)=O)NC(=O)[C@@H]1CCCN1C(=O)[C@@H](CCCCN)NC(=O)[C@H]1CCCN1C(=O)[C@H](N)CCCN=C(N)N)C(N)=O` (H-[dR][dP][dK]P[dQ]Q[dW]F[dW]LL-NH2): the TGI with SF-295 CNS, in the assay with NCI-H23 lung, with UO-31 renal, with EKVX NSCLC, in the assay on HT29 colon and in the assay with NCI-H522 lung was above 100 µM throughout. In the assay with OVCAR-8 ovarian, this compound displayed a TGI above 100 µM.
Regarding `COc1ccc(/C(=N/O)c2ccccc2C2=Nc3ccccc3C(NCc3ccccc3)O2)cc1C` (stereo not given), the TGI with SF-295 CNS was 67.3 µM; in the assay with NCI-H23 lung, above 100 µM; in the assay on SR leukemia it was above 100 µM; in the assay on UO-31 renal it was 67.5 µM; with MDA-MB-435 it was 90.4 µM; in the assay with EKVX NSCLC, above 100 µM. For the same compound, the TGI is above 100 µM in the assay on HT29 colon, above 100 µM with NCI-H522 lung and 77.1 µM with OVCAR-8 ovarian.
For the compound `N#CC1=C(O)NC(O)=C(C#N)C1c1c(Cl)cccc1Cl`, the TGI in the assay on SF-295 CNS, in the assay on NCI-H23 lung, with SR leukemia, in the assay with UO-31 renal, with EKVX NSCLC and in the assay with HT29 colon was above 100 µM throughout. The TGI in the assay with NCI-H522 lung was above 100 µM; in the assay with OVCAR-8 ovarian, 45 µM.
Turning to `CCn1c(CCCc2nc3c([nH]2)c(=O)n(C)c(=O)n3C)nc2c1c(=O)n(C)c(=O)n2C`, the TGI in the assay on SF-295 CNS, in the assay on T-47D breast, in the assay with NCI-H23 lung, with UO-31 renal, with MDA-MB-435 and in the assay with EKVX NSCLC was above 100 µM in each case. In addition, the TGI in the assay with HT29 colon, with NCI-H522 lung and in the assay with OVCAR-8 ovarian was above 100 µM in each case.
As to `COC1(OC)CC(CO)(COc2cc(Cl)nc(N)n2)C1`, the TGI in the assay on SF-295 CNS, in the assay with T-47D breast, with NCI-H23 lung, with UO-31 renal, in the assay on MDA-MB-435 and with EKVX NSCLC was above 100 µM throughout. In addition, the TGI in the assay on HT29 colon, with NCI-H522 lung and in the assay with OVCAR-8 ovarian was above 100 µM throughout.
Take `O=C1C(Cl)N(c2ccc([N+](=O)[O-])cc2)C1c1c[nH]c2ccccc12` (stereo not given): the TGI with SF-295 CNS, in the assay with NCI-H23 lung, with SR leukemia, with UO-31 renal, in the assay with EKVX NSCLC and in the assay on HT29 colon was above 100 µM throughout. In addition, the TGI with NCI-H522 lung and in the assay on OVCAR-8 ovarian was above 100 µM each time.
For the compound `CN(C)C(=O)N1N[C@H](c2ccccc2)[C@@H]1c1ccccc1`, the TGI with SF-295 CNS, with T-47D breast, in the assay on NCI-H23 lung, in the assay on UO-31 renal, in the assay with MDA-MB-435 and with EKVX NSCLC was above 100 µM throughout. The TGI in the assay with NCI-H522 lung and in the assay with OVCAR-8 ovarian was above 100 µM in each case.
On to `O=C1CCCC1CC(CN1CCOCC1)Sc1nnnn1-c1ccccc1` (stereo not given), for which the TGI with SF-295 CNS, with NCI-H23 lung, in the assay on SR leukemia, in the assay on UO-31 renal, in the assay on MDA-MB-435 and in the assay with EKVX NSCLC was above 100 µM throughout. The TGI with HT29 colon, in the assay with NCI-H522 lung and with OVCAR-8 ovarian was above 100 µM in each case.
For `COc1ccc(C2N(c3ccc(C)c(N=C=O)c3)C(=O)N3C(c4ccc(OC)cc4)N(c4ccc(C)c(N=C=O)c4)C(=O)N23)cc1` (stereo not given), the TGI in the assay with SF-295 CNS, with NCI-H23 lung, in the assay with SR leukemia, in the assay with UO-31 renal, with MDA-MB-435 and in the assay with EKVX NSCLC was above 100 µM in each case. For the same compound, the TGI in the assay with HT29 colon and with OVCAR-8 ovarian was above 100 µM throughout.
On to `O=C1Sc2ccccc2C(=O)N2CCSC12` (stereo not given), for which the TGI in the assay with SF-295 CNS, in the assay with NCI-H23 lung, in the assay on SR leukemia, with UO-31 renal and with OVCAR-8 ovarian was above 100 µM in each case.
Turning to `COC(=O)/C=C1\C(CO[Si](C)(C)C(C)(C)C)OC(n2cc(C)c(=O)n(C)c2=O)C1O[Si](C)(C)C(C)(C)C` (stereo not given), the TGI in the assay on SF-295 CNS, with NCI-H23 lung, in the assay on UO-31 renal, with MDA-MB-435, in the assay on EKVX NSCLC and with HT29 colon was above 100 µM throughout. Besides, the TGI with NCI-H522 lung and in the assay on OVCAR-8 ovarian was above 100 µM each time.
In the case of `Cc1ccc(C)n1-c1ccccc1C1C=Cn2c(=O)oc3c(OC(C)C)c(OC(C)C)c(O)c1c32` (stereo not given), the TGI with SF-295 CNS is above 100 µM; with NCI-H23 lung, above 100 µM; in the assay on UO-31 renal it was 31.9 µM; in the assay with MDA-MB-435 it was 38.6 µM; in the assay with EKVX NSCLC, above 100 µM; with HT29 colon, above 100 µM. Moreover, the figures for the TGI in the assay with NCI-H522 lung and with OVCAR-8 ovarian were 75.5 µM and above 100 µM, respectively.
